Calls of active or inactive are those of the source.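 Rule for the calls: active = compounds giving half or more protection of infected cells from virus-caused growth loss, again on retest; inactive = the rest.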 Where a SMILES comes first, the peptide text is derived from it. [ ]: non-standard residue; d: D form. The star is where a group is joined. NMeF = CN[CH](Cc1ccccc1)C(=O)O; NMeV = CN[CH](C(=O)O)C(C)C; Boc = CC(C)(C)OC(=O)*; OBn = c1ccc(CO*)cc1

This test deals with CEM cells HIV-1 protection, formazan growth assay. Briefly: NCI AIDS Antiviral Assay. The settings on record: for IC50: measured here: growth of uninfected CEM cells. In short, it runs like this:
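Protection of CEM cells against HIV-1 measured as cell growth via soluble formazan read-out, with five concentrations tested on both infected and uninfected cells; failure to protect may reflect toxicity.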

On to `CCCCCOC(=S)S`, for which the EC50 was more than 200 µM and the IC50 was more than 200 µM. As for `CC1C/C(=N\N(C)C)C(C#N)(C#N)C1(C#N)C#N` (centres undefined), the EC50 is more than 200 µM and the IC50 is 6.03 µM. Consider `O=C(O)/C=C/n1c2ccccc2c(=O)c2ccccc21`, for which the EC50 was more than 70.8 µM and the IC50 is more than 70.8 µM.

`COc1cccc(CCNC(=O)CC#N)c1`: the result was inactive. For the compound `CNc1ccc(Cl)cc1S(=O)(=O)c1ccc([N+](=O)[O-])cc1`, the EC50 was more than 200 µM and the 50% inhibitory concentration (IC50) is more than 200 µM. For the compound `S=c1c2ccccc2c(=S)n(-c2ccccc2)n1-c1ccccc1`, the EC50 is more than 200 µM and the IC50 was more than 200 µM. Regarding `CC(=O)Oc1ccc2c(C)cc(=O)oc2c1`, the EC50 is more than 200 µM and the IC50 came out at 170 µM.

For `Cc1ccc(/C(C#N)=C/c2ccc3c(c2)OCO3)cc1`, the EC50 was more than 200 µM and the IC50 was determined as 10 µM. For `CC1=NNC(=O)C1C1CC(c2c[nH]c3ccccc23)=NNC1=S` (centres undefined), the EC50 was more than 100 µM and the IC50 was more than 100 µM. Regarding `C/C(CC(=O)Nc1cc(Cl)c(Cl)cc1Cl)=N\NC(N)=O`, the EC50 was more than 21.4 µM and the IC50 worked out at 2.75 µM. Regarding `C=CCC(N(C)C(=O)[C@H](Cc1ccccc1)NC(=O)OCc1ccccc1)P(=O)(Oc1ccccc1)Oc1ccccc1` (some centres undefined), the EC50 was more than 200 µM and the IC50 turned out to be 77.6 µM. The like results for `COC(=O)C(=O)C(C(=O)OC)C(=O)C(=O)Nc1c(C)cccc1C` (centres undefined) were, in that order, more than 204 µM and more than 204 µM. For `CCN1C(=O)CS/C1=N\NC(=O)CSc1nc2ccccc2c(=O)n1CC`, in that order: more than 200 µM and 151 µM. With `CCN1CCC(O)(/C=C/c2ccc(Cl)c(Cl)c2)C(C(=O)/C=C/c2ccc(Cl)c(Cl)c2)C1` (centres undefined), the EC50 was more than 25.1 µM and the concentration for half-maximal inhibition (IC50) was 0.513 µM.

Take `C=CCNC(=S)N/C=C(/C#N)C(=O)OC`: the result was inactive.

On to `CCC(C)C(NC(=O)C(CCC(N)=O)NC(=O)C(CCCCN)NC(=O)C(CO)NC(=O)C(CC(C)C)NC(=O)C(Cc1ccc(O)cc1)NC(=O)C(C)N)C(=O)NC(C)C(=O)NC(CO)C(=O)NC(CC(N)=O)C(=O)O` (centres undefined) (H-AYLSKQIASN-OH; configuration not given here), for which the EC50 is more than 57.5 µM and the 50% inhibitory concentration (IC50) was more than 57.5 µM. Consider `Cc1cccc(C(C)C)c1NC(=O)/C(Cc1c([N+](=O)[O-])cccc1[N+](=O)[O-])=N/NC(=O)CC#N`, for which the EC50 was more than 145 µM and the IC50 was more than 145 µM.

Regarding `C/C(CC(=O)Nc1ccc([N+](=O)[O-])cc1)=N/N=C(N)N`, the EC50 is more than 67.6 µM and the IC50 was more than 67.6 µM. Consider `O=[N+]([O-])c1ccc(Cl)cc1N/N=C/c1ccnc2ccccc12`, for which the result was inactive. For the compound `c1ccc(COC[C@H]2O[C@@H](c3ccccc3)C[C@@H](OCc3ccccc3)C2OCc2ccccc2)cc1` (some centres undefined), the EC50 was more than 200 µM and the IC50 is more than 200 µM. With `c1scc2c1COCCOCCOCCOCCOC2`, the EC50 was more than 832 µM and the IC50 was more than 832 µM. For the compound `C=Cc1ccncc1`, the EC50 was more than 200 µM and the IC50 is more than 200 µM. Regarding `C#CCN(CCC)C(=O)COc1cc2c(O)c3c(O)c(C)c4c(c13)C(=O)C(C)(O/C=C/C(OC)C(C)C(OC(C)=O)C(C)C(O)C(C)C(O)C(C)/C=C/C=C(\C)C(=O)N2)O4` (centres undefined), the EC50 is more than 200 µM and the 50% inhibitory concentration (IC50) was 39.8 µM. The like results for `CC(C)[C@@H]1CC[C@]2(COC(=O)CC(C)(C)CC(=O)O)CC[C@]3(C)[C@H](CC[C@@H]4[C@@]5(C)CC[C@H](OC(=O)CC(C)(C)CC(=O)O)C(C)(C)[C@@H]5CC[C@]43C)[C@@H]12` were, in that order, more than 200 µM and 9.77 µM. For `Cc1ccc(-c2cc(-c3ccccc3)c(C#N)c(=O)n2C2OC(CO)C(O)C(O)C2O)cc1` (centres undefined), in that order: 21.4 µM and 22.4 µM. The like results for `O=C(Nc1ccc(Cl)cc1)NS(=O)(=O)c1ccc2c(c1)CCC2` were, in that order, more than 708 µM and 47.9 µM. Regarding `CCC1(c2ccc(N3C(=O)c4cccc5cc([N+](=O)[O-])cc(c45)C3=O)cc2)CCC(=O)NC1=O` (centres undefined), the EC50 is more than 151 µM and the IC50 came to 13.5 µM. In the case of `COC(=O)[C@]1(C)CCC[C@]2(C)C3CC4OOC3(C=C4C(C)(C)O)CCC21` (some centres undefined), the EC50 was more than 251 µM and the 50% inhibitory concentration (IC50) turned out to be 38.9 µM. For `COc1cc(OCc2ccc3nc(-c4ccccc4)c(Cl)nc3c2)cc(OC)c1OC`, in that order: more than 200 µM and more than 200 µM. For the compound `Oc1ccc(Cl)cc1-c1cc(-c2ccccc2)nc(=S)[nH]1`, the EC50 was more than 200 µM and the IC50 came out at 170 µM. For `CC(=O)Nc1ccc2nncnc2c1`, in that order: more than 200 µM and more than 200 µM. Regarding `NCCCC1CCCCNC1` (centres undefined), the result was inactive. As to `CCCc1cc(=O)oc2c3c(c4c(c12)OC(C)(C)C=C4)O[C@H](C)[C@H](C)[C@@H]3O`, the EC50 was more than 87.1 µM and the half-inhibitory concentration (IC50) was found to be 6.46 µM.

For the compound `CCCCCC/C=C\CCCCCCCCCc1cc(O)cc(OC)c1O`, the EC50 is more than 13.8 µM and the IC50 was 5.01 µM. The like results for `CC[C@]1(Cc2ccc(OC)c(OC)c2)C=[N+]([O-])O[C@H](OC2CCCCC2c2ccccc2)[C@@H]1OC(C)=O` (some centres undefined) were, in that order, more than 200 µM and 30.2 µM. Turning to `CCSC1=N/C(=C\c2ccccc2O)C(Nc2ccc(C)cc2)=N1`, the EC50 is more than 100 µM and the 50% inhibitory concentration (IC50) was more than 100 µM. `CCCCCc1cc(OC(=O)c2c(O)cc(OC)cc2CCCCC)cc(O)c1C(=O)O`: the EC50 was more than 295 µM and the IC50 amounted to 29.5 µM. `CCOC(=O)c1cc(C2CCN(Cc3ccccc3)C2=O)c(C(=O)C(=[N+]=[N-])C(C)=O)[nH]1` (centres undefined): the EC50 is more than 200 µM and the 50% inhibitory concentration (IC50) is more than 200 µM. As to `OCC(O)COc1c(Cl)cc(Cl)cc1Cl` (centres undefined), the EC50 is more than 251 µM and the IC50 was more than 251 µM. With `CNC(=O)[C@H](Cc1ccccc1)NC(=O)N(CCC#N)CCN(C(=O)N[C@@H](Cc1ccccc1)C(=O)OC)c1ccccc1`, the EC50 is more than 200 µM and the IC50 is more than 200 µM. With `CCOC(=O)c1c(N2CCOCC2)[nH]c(=O)c(C(c2ccco2)c2c(O)c(C(=O)OCC)c(N3CCOCC3)[nH]c2=O)c1O`, the EC50 was more than 200 µM and the half-inhibitory concentration (IC50) is more than 200 µM. `Nc1nc2c(ncn2C2COC(CO)O2)c(=O)[nH]1` (centres undefined): the concentration for a half-maximal effect (EC50) was 30.2 µM and the IC50 was more than 200 µM. On to `C[S+](C)CC(=O)c1ccc2c(c1)Sc1ccccc1O2`, for which the EC50 is more than 100 µM and the 50% inhibitory concentration (IC50) stood at 2.04 µM. With `CN(C)CCNc1ccc(NCCN(C)C)c2c1C(=O)c1ncsc1C2=O`, the EC50 was more than 100 µM and the IC50 worked out at 0.724 µM. For `CC(=O)c1c2c(cc3c1CC1(Cc4cc5c(cc4C1)C(=O)CCC5)C3)CCCC2` (centres undefined), in that order: more than 200 µM and 3.63 µM. `COc1ccc2c(c1OC)C(=O)c1ccoc1C2=O`: the outcome was inactive. Turning to `CC(C)C(NC(=O)OC(C)(C)C)C(=O)N(C)C(Cc1ccccc1)C(=O)N(C)C(C(=O)N(C)C(C(=O)OCc1ccccc1)C(C)C)C(C)C` (centres undefined) (Boc-V[NMeF][NMeV][NMeV]-OBn; configuration not given here), the EC50 is more than 200 µM and the IC50 was more than 200 µM. For `COC(=O)[C@H](CCSC)NCc1cc(N(C)C)cc(CN[C@@H](CCSC)C(=O)OC)n1`, the EC50 is more than 200 µM and the IC50 was more than 200 µM. Take `CCSc1c(S)cnn(C)c1=O`: the EC50 was 23.4 µM and the concentration for half-maximal inhibition (IC50) is 30.9 µM.

Consider `Cc1cc(-c2ccc(N=Nc3c(N)c(C)cc(S(=O)(=O)O)c3N)c(C)c2)ccc1N=Nc1ccc(O)c(C(=O)O)c1`, for which the EC50 is 126 µM and the IC50 is more than 200 µM. `O=C1CCCCC1CN1CCCC1` (centres undefined): the outcome was inactive. For `Cc1cc2nncn2c2nnnn12`, the EC50 is more than 200 µM and the IC50 is more than 200 µM. For `NS(=O)(=O)c1ccc(Nc2c3ccccc3nc3ncccc23)cc1`, the EC50 was more than 200 µM and the half-inhibitory concentration (IC50) was more than 200 µM. `O=c1cc(N=Nc2ccc(Br)cc2)[nH]c(=S)[nH]1`: the EC50 was more than 200 µM and the IC50 came out at 1.1 µM. The like results for `O=c1[nH]c2cc3[nH]c4ncccc4c(=O)c3cc2[nH]1` were, in that order, 148 µM and more than 200 µM.

Turning to `CC(=O)C1C(=O)C(C(C)=O)C2C3C=CC(C3)C12` (centres undefined), the EC50 is more than 200 µM and the concentration for half-maximal inhibition (IC50) worked out at 74.1 µM. Take `CC1(C)OCC([C@H]2CC23SCCCS3)O1` (some centres undefined): the EC50 is more than 200 µM and the IC50 was more than 200 µM.

`C=CCn1c(-c2cc(C(C)(C)C)c(O)c(C(C)(C)C)c2)cs/c1=N\C(P(=O)(O)O)P(=O)(O)O`: the EC50 was more than 200 µM and the half-maximal inhibitory concentration (IC50) came out at 21.4 µM. For `COc1c(OC(C)C)c(OC(C)C)c2oc(=O)n3c2c1C(c1ccccc1-n1c(C)ccc1C)C=C3` (centres undefined), in that order: more than 200 µM and more than 200 µM. As for `CCCCCCCCCCCCCC(=O)OC1C(O)C(CO)OC(OC)C1NC(=O)N(CCCl)N=O` (centres undefined), the EC50 was more than 34.7 µM and the IC50 is more than 34.7 µM.

Regarding `O=C1CCSSCCC(=O)NCCCN1`, the EC50 is more than 40.7 µM and the IC50 is more than 40.7 µM. With `COc1cc(C(=O)C/C(CCC(=O)Nc2ccccc2[N+](=O)[O-])=N\NC(N)=O)ccc1O`, the EC50 was more than 562 µM and the half-inhibitory concentration (IC50) stood at 525 µM. In the case of `COc1ccc2c(-c3cc4ccccc4o3)cc(=O)oc2c1`, the outcome was inactive.

`NC(=O)c1cn(C2OC(CO)C(O)C2O)c(=O)[nH]c1=O` (centres undefined): the EC50 was more than 871 µM and the 50% inhibitory concentration (IC50) is more than 871 µM.

Take `CC1C2CC(CC23OCC(CCl)O3)C1(C)C` (centres undefined): the EC50 was more than 200 µM and the IC50 is more than 200 µM. Regarding `CCCC1(CCCNC(=O)c2ccccc2)OCc2ccccc2CO1`, the EC50 is more than 513 µM and the concentration for half-maximal inhibition (IC50) is more than 513 µM. Consider `CC1C2(C)OC(=N)C(C#N)(C(c3ccco3)O2)C1(C#N)C#N` (centres undefined), for which the EC50 was more than 200 µM and the 50% inhibitory concentration (IC50) is 14.5 µM. As to `CCNC(=S)NNC(=O)c1ccccc1Nc1ccccc1C(=O)NNC(=S)NCC`, the result was inactive and the half-inhibitory concentration (IC50) was 112 µM.
